Test results as given in publication PMC10276294, “Regulatory ligand binding in plant chalcone isomerase–like (CHIL) proteins” (The Journal of Biological Chemistry, 2023).
Several values for one entry are separate records, joined by “and”; a condition that tells them apart may be missing. Identical values can stand only once.

What was measured:
PpCHIL-A [1] = target: T1, PpCHIL-A (Physcomitrium patens, UniProt A9T3E4); experiment: Differential scanning fluorimetry (DSF) thermal shift, PpCHIL-A; assay type: binding, Physcomitrella patens; conditions: for ΔTm: read-out: maximum thermal shift (ΔTmmax); for difference of apparent Kd relative to NC: PpCHIL-A
T1 sequence (A9T3E4 entry or part of it): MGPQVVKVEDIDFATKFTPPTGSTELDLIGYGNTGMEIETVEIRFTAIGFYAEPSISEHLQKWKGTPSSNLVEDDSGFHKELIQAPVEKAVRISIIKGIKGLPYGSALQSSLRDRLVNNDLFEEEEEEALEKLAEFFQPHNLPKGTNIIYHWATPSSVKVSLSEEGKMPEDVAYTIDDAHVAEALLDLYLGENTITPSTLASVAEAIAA
Text: (§1) Differential scanning fluorimetry (DSF) is a sensitive and label-free method for measuring the Tm of a protein, defined as the temperature at which 50% of a protein sample is unfolded ([21]). Positive Tm changes have been used to measure binding between a CHIL protein and chalcones ([15]). To elucidate a broader scope of CHIL–chalcone interactions, DSF was used to determine the thermal shifts that occur to VvCHIL and PpCHIL-A upon binding naturally occurring chalcones containing different substitution patterns (Fig. 1).
(§2) Assays were performed using SYPRO orange dye (1:625 dilution) and 6 μM CHIL protein against dilution series of (2R/2S)-naringenin (Sigma–Aldrich), NC, 2ʹ,4,4ʹ-trihydroxychalcone (Indofine), 2,2ʹ,4ʹ-trihydroxychalcone (Indofine), and quercetin (Thermo Scientific). Reactions were run in 20 μl reaction volumes and in a buffer containing 150 mM NaCl, 25 mM Tris (pH 8.0), 2 mM DTT, and 2% DMSO. Because of low solubility, 2% DMSO was used for all reactions to enhance ligand solubility. Experiments were performed on a QuantStudio 3 Real-Time PCR and analyzed using Protein ThermalShift software (Thermo Fisher Scientific). Replicates of two to four experiments were conducted for each condition, and GraphPad Prism 9 was used to fit maximum thermal shift (ΔTmmax) and apparent Kd values.

VvCHIL [2] = target: T2, VvCHIL (Vitis vinifera, UniProt F6HC36); experiment: Differential scanning fluorimetry (DSF) thermal shift, VvCHIL; assay type: binding; conditions: for ΔTm: read-out: maximum thermal shift (ΔTmmax); for effect on protein thermostability (thermal shift): high ligand concentration
T2 sequence (F6HC36 entry or part of it): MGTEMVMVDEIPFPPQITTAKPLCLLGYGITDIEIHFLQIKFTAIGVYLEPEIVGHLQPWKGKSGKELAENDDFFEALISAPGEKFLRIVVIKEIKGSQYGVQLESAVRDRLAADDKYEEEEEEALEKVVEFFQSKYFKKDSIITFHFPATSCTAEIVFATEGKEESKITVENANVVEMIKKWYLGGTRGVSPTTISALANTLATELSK
Text: as §1, §2

VvCHIL Q141A [3] = target: T3, VvCHIL Q141A (Vitis vinifera, UniProt F6HC36, Q141A); experiment: DSF thermal shift, VvCHIL Q141A variant; assay type: binding
T3 sequence (F6HC36 entry or part of it Q141A): as the sequence (F6HC36 entry or part of it) above, with Q103A counted along it
Procedure: as §2

HlCHIL1 = target: HlCHIL1; design: method as in PMID 29760092; conditions: measured by DSF; ref [15]; cited from earlier work
VvCHIL W221L [4] = target: T4, VvCHIL W221L (Vitis vinifera, UniProt F6HC36, W221L); experiment: DSF thermal shift, VvCHIL W221L variant; assay type: binding
T4 sequence (F6HC36 entry or part of it W221L): as the sequence (F6HC36 entry or part of it) above, with W183L counted along it
Procedure: as §2

PpCHIL–PpCHS binding = experiment: Protein pull-down assay, strep-PpCHS and untagged PpCHIL-A; design: species or system P. patens; conditions: 4.3 mM ligand
Procedure: (§3) Protein pull-down assays were conducted using 1 mg of purified strep-tagged AtCHS or PpCHS and 0.3 ml StrepTactin Sepharose resin. The untagged purified VvCHIL or PpCHIL-A proteins was used as […] (0.5 mg). Binding reactions were incubated at room temperature either without ligand and 2% DMSO, or with the reported concentration of ligand and 2% DMSO. The StrepTactin resin was washed 4× with 1 ml of buffer in order to remove unbound protein prior to elution. Each wash buffer contained the reported concentration of ligand, 2% DMSO, 150 mM NaCl, 50 mM Tris (pH 8.0), and 2 mM DTT. Strep-CHS was eluted from the StrepTactin resin with 0.1 ml elution buffer, which contains 1 mM desthiobiotin, 2% DMSO, 150 mM NaCl, 50 mM Tris (pH 8.0), and 2 mM DTT. The pull-down assays were resolved using 15% acrylamide SDS-PAGE and native PAGE gels and imaged and quantified using Image Lab (Bio-Rad). About 50 mM of DTT was used in the native PAGE loading buffer.

VvCHIL–AtCHS binding = experiment: Protein pull-down assay, strep-AtCHS and untagged VvCHIL; design: species or system Vitis vinifera / A. thaliana; conditions: for effect on VvCHIL–AtCHS binding: increasing ligand concentrations, 2% DMSO
Procedure: as §3

PpCHS–PpCHIL-A L188W = experiment: Protein pull-down assay, strep-PpCHS and PpCHIL-A L188W; assay type: binding, P. patens; conditions: 4.3 mM ligand
Procedure: as §3

PpCHIL-A L188W [5] = target: T5, PpCHIL-A L188W (Physcomitrium patens, UniProt A9T3E4, L188W); experiment: DSF thermal shift, PpCHIL-A L188W variant; assay type: binding, Physcomitrella patens
T5 sequence (A9T3E4 entry or part of it L188W): as the sequence (A9T3E4 entry or part of it) above, with L188W counted along it
Procedure: as §2

MsCHI-II = target: T6, MsCHI-II (Medicago sativa, UniProt P28012); experiment: Differential scanning fluorimetry (DSF) thermal shift, MsCHI-II; assay type: binding; conditions: pH 8.0, 2% DMSO, read-out: apparent Kd
T6 construct: His8 (thrombin-cleavable) (N, cleaved yes); made in house; host or cells: E. coli BL21 DE3-pRIL
T6 sequence (P28012 1-222): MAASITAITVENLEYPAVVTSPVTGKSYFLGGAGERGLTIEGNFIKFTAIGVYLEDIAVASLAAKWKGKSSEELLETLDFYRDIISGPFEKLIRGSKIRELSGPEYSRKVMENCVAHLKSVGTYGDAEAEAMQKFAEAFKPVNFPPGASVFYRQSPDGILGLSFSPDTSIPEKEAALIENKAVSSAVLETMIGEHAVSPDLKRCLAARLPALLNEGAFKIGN

VvCHIL W221L [6] = target: T4, VvCHIL W221L; experiment: Quercetin fluorescence enhancement assay, VvCHIL W221L; assay type: binding
Procedure: (§4) Fluorescence enhancement of quercetin (Thermo Scientific) was measured in the presence of VvCHIL and PpCHIL-A. The assays were performed in a buffer containing 25 mM Tris (pH 8.0), 150 mM NaCl, and 2% dimethyl sulfoxide (DMSO), used to solubilize quercetin. Protein concentrations were varied from 4.3 to 2250 μM relative to a constant concentration of quercetin (10 μM). After a binding equilibration period of 10 min at 25 °C, changes to the relative fluorescence intensity of quercetin (excitation 485 nm and emission 545 nm) were measured using a Vector X3 multimode plate reader (PerkinElmer). Background fluorescence from identical samples not containing quercetin was subtracted, and change-in-fluorescence data were fit using GraphPad Prism 9 (GraphPad Sofware, Inc) to a single-site binding equation in order to determine equilibrium dissociation constant (Kd) values.

VvCHIL W221L [7] = experiment: as above; assay type: binding, Vitis vinifera; conditions: VvCHIL W221L, fluorescence
Procedure: as §4

VvCHIL Q141A [8] = target: T3, VvCHIL Q141A; experiment: Quercetin fluorescence enhancement assay, VvCHIL Q141A; assay type: binding
Procedure: as §4

VvCHIL [9] = target: T2, VvCHIL; experiment: Quercetin fluorescence enhancement assay, VvCHIL; assay type: binding
Procedure: as §4

PpCHIL-A L188W [10] = target: T5, PpCHIL-A L188W; experiment: Quercetin fluorescence enhancement assay, PpCHIL-A L188W; assay type: binding, Physcomitrella patens
Procedure: as §4

PpCHIL-A [11] = target: T1, PpCHIL-A; experiment: Quercetin fluorescence enhancement assay, PpCHIL-A; assay type: binding, Physcomitrella patens; conditions: fluorescence enhancement of 10 μM quercetin, protein titrated, 25 °C, pH 8.0
Procedure: as §4

[12] = target: Chalcone isomerase-like protein from Vitis vinifera (VvCHIL) (Vitis vinifera); experiment: SEC; HiPrep Sephacryl S-200 high-resolution column, 1 ml/min, 200 mM NaCl, 25 mM Tris pH 8.0, 2 mM DTT; His tags removed; masses against Bio-Rad standards
[13] = DSF, 6 μM protein, pH 8.0, 2% DMSO
[14] = DSF, single-site fit, 6 μM protein, pH 8.0, 2% DMSO, read-out: apparent Kd
[15] = fluorescence enhancement of quercetin

In the case of O=C(/C=C/c1ccccc1O)c1ccc(O)cc1O [2,2ʹ,4ʹ-trihydroxychalcone], the ΔTm (PpCHIL-A [1]; [13]) is reported as 2.7 ± 0.2 °C, the Kd (PpCHIL-A [1]; [14]) is reported as 85 ± 23 µM and the “difference of apparent Kd relative to NC” value (PpCHIL-A [1]; DSF) is reported as “twofold greater”. For the same molecule, the ΔTm (VvCHIL [2]; [13]) was 3.3 ± 0.7 °C, the Kd (VvCHIL [2]; [14]) was 286 ± 23 µM and the “fold difference of apparent Kd relative to NC (NC smaller)” value (VvCHIL [2]; VvCHIL, DSF) was ~11 fold.

With O=C(/C=C/c1ccc(O)cc1)c1ccc(O)cc1O [2ʹ,4,4ʹ-trihydroxychalcone] the Kd (PpCHIL-A [1]) was 41 ± 10 µM, the “difference of apparent Kd relative to NC” value (PpCHIL-A [1]; DSF) was “does not bind with an appreciable difference” and the Kd (VvCHIL [2]) was 127 ± 51 µM. The “fold difference of apparent Kd relative to NC (NC smaller)” value (VvCHIL [2]; VvCHIL, DSF) was “approximately 5 fold”.

In the case of O=C(/C=C/c1ccc(O)cc1)c1c(O)cc(O)cc1O [NC, 2ʹ,4,4ʹ,6ʹ-tetrahydroxychalcone], the Kd (VvCHIL Q141A [3]) is given as 16 ± 2 µM, the Kd (HlCHIL1) is given as 43 µM and the ΔTmmax (HlCHIL1) is given as 6.4 °C. For the same molecule, the ΔTm (PpCHIL-A [1]; [13]) was 1.7 ± 0.2 °C, the Kd (PpCHIL-A [1]; [14]) was 58 ± 16 µM and the Kd (VvCHIL W221L [4]) was 17 ± 4 µM. The ΔTm (VvCHIL [2]; [13]) was 3.5 ± 0.2 °C, the Kd (VvCHIL [2]; [14]) was 24 ± 5 µM and the “PpCHIL-A in the strep-PpCHS–bound fraction” value (PpCHIL–PpCHS binding) was “strongly enriched”. For the same molecule, the “effect on VvCHIL–AtCHS binding” value (VvCHIL–AtCHS binding) was “enhances binding”, the “pull-down of PpCHIL-A L188W by PpCHS” value (PpCHS–PpCHIL-A L188W) was “enhanced” and the Kd (PpCHIL-A L188W [5]) was 18 ± 6 µM. The “increase of apparent binding affinity over wildtype PpCHIL-A” value (PpCHIL-A L188W [5]; PpCHIL-A L188W, DSF) was “approximately threefold”.

For O=C1C[C@@H](c2ccc(O)cc2)Oc2cc(O)cc(O)c21 [naringenin], the “thermal destabilization by ligand” value (VvCHIL Q141A [3]; VvCHIL Q141A, DSF) was “does not undergo thermal destabilization”, the Kd (PpCHIL-A [1]) was 762 ± 39 µM and the Kd (MsCHI-II) was 1020 µM and 1050 µM. For the same molecule, the “thermal destabilization by ligand” value (VvCHIL W221L [4]; VvCHIL W221L, DSF) was “does not undergo thermal destabilization”, the “effect on protein thermostability (thermal shift)” value (VvCHIL [2]; VvCHIL, DSF) was “reduced protein Tms at high naringenin concentrations” and the “PpCHIL-A in the strep-PpCHS–bound fraction” value (PpCHIL–PpCHS binding) was “observed in the bound fractions”. The “VvCHIL band in the strep-AtCHS–bound fraction” value (VvCHIL–AtCHS binding; 4.30 mM ligand) was “below the threshold of detection”, the “effect on VvCHIL–AtCHS binding” value (VvCHIL–AtCHS binding) was “increasingly disrupted” and the “pull-down of PpCHIL-A L188W by PpCHS” value (PpCHS–PpCHIL-A L188W) was “similarly in the presence and absence of naringenin”. For the same molecule, the Kd (PpCHIL-A L188W [5]) was 180 ± 81 µM, the “increase of apparent binding affinity over wildtype PpCHIL-A” value (PpCHIL-A L188W [5]; PpCHIL-A L188W, DSF) was “approximately fourfold” and the “reduction of thermal stabilization relative to wildtype PpCHIL-A” value (PpCHIL-A L188W [5]; PpCHIL-A L188W, DSF) was “approximately 2 °C”.

For O=c1c(O)c(-c2ccc(O)c(O)c2)oc2cc(O)cc(O)c12 [quercetin], the Kd (VvCHIL W221L [6]) was 612 ± 167 µM, the “reduction of binding relative to wildtype VvCHIL” value (VvCHIL W221L [7]) was “approximately twofold” and the “change of binding relative to wildtype VvCHIL” value (VvCHIL Q141A [8]; fluorescence) was “not significantly altered”. The Kd (VvCHIL Q141A [8]; [15]) was 403 ± 59 µM, the “fraction of VvCHIL bound” value (VvCHIL [9]; 750 μM quercetin, based on the Kd value for VvCHIL) was 0.68 and the Kd (VvCHIL [9]; fluorescence enhancement of 10 μM quercetin, protein titrated, 25 °C, pH 8.0) was 347 ± 35 µM. For the same molecule, the “ligand concentration that induces a negative thermal shift” value (VvCHIL [2]; VvCHIL, DSF) was “above 750 μM”, the “effect on protein thermostability (thermal shift)” value (VvCHIL [2]; VvCHIL, DSF) was “destabilizes” and the “reduction of binding affinity relative to wildtype PpCHIL-A” value (PpCHIL-A L188W [10]; fluorescence) was “approximately twofold”. It also gave a Kd (PpCHIL-A L188W [10]; [15]) of 582 ± 282 µM and a Kd (PpCHIL-A [11]) of 240 ± 121 µM.

Molecule “Chalcone isomerase-like protein from Vitis vinifera (VvCHIL) (natural protein)” has a stoichiometry N [12] of 3.
